Experimental data reported in patent publication US10364222B2, “Cyclic amine derivative and medical use thereof” (Toray Industries, Inc., priority 2016, dated 2019).

What was measured:
[1] = biological target: T1, ligand-binding domain of RORγ (RORγ-LBD) (Homo sapiens, UniProt P51449); assay: Inhibitory effect on RORγ-coactivator binding (LanthaScreen TR-FRET RORγ Coactivator Assay); details: at 33 μmol/L of the test compound; read-out: RORγ-coactivator binding inhibition rate (%)
T1 construct: purchased Invitrogen
T1 sequence (P51449 269-508 limits assumed): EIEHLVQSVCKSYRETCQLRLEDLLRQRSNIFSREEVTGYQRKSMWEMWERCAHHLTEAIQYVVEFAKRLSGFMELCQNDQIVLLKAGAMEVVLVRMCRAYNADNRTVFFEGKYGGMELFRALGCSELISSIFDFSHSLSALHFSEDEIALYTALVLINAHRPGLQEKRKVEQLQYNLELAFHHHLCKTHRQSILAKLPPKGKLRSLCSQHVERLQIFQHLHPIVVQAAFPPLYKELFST
How it was run: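 TR-FRET: 4 nmol/L GST-RORγ-LBD with compound (1% DMSO) in Coregulator Buffer D plus 5 mmol/L DTT, then 150 nmol/L fluorescein-TRAP220/DRIP-2 and 32 nmol/L Tb-anti-GST antibody; 16–24 hours at room temperature. 520/495 nm ratio (320 nm excitation), background-corrected against control, gives % inhibition of coactivator binding.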

[2] = test system: IL-17 production in mouse splenocytes; assay: Suppressive effect on IL-17 production by IL-23 stimulation in mouse splenocytes; type: cell-based; details: Splenocyte, 72 h, at 5 μmol/L of the test compound, 10 ng/mL human IL-23, 3 days, read-out: IL-17 production inhibition rate (%)
How it was run: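 Splenocytes from male C57BL/6J mice (3×10^5/well, with 100 U/mL human IL-2) stimulated with 10 ng/mL human IL-23 plus compound (0.1% DMSO) for 3 days at 37 °C. Supernatant IL-17 measured by ELISA; inhibition calculated against unstimulated and IL-23-only wells.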

Structure (SMILES)	inhibition at 33 µM [1]	inhibition at 5 µM [2]
CS(=O)(=O)N1CCC(F)(F)C[C@@H]1C(=O)Nc1ccc(-c2ccccc2OC(F)(F)F)c(Cl)c1 [Example 28, (R)-N-(2-chloro-2′-(trifluoromethoxy)-[1,1′-biphenyl]-4-yl)-4,4-difluoro-1-(methylsulfonyl)piperidine-2-carboxamide]	101%	98.6%
Cn1ccnc1CC(=O)N1CCCCC1C(=O)Nc1ccc(-c2ccccc2OC(F)(F)F)c(Cl)c1 (centres unmarked) [Example 50, N-(2-chloro-2′-(trifluoromethoxy)-[1,1′-biphenyl]-4-yl)-1-(2-(1-methyl-1H-imidazol-2-yl)acetyl)piperidine-2-carboxamide]	101%	94.5%
O=C(Nc1ccc(-c2ccccc2OC(F)(F)F)c(Cl)c1)C1CCCCN1C(=O)Cn1cnnn1 (centres unmarked) [Example 53, 1-(2-(1H-tetrazol-1-yl)acetyl)-N-(2-chloro-2′-(trifluoromethoxy)-[1,1′-biphenyl]-4-yl)piperidine-2-carboxamide]	105%	102%
O=C(Nc1ccc(-c2ccccc2OC(F)(F)F)c(Cl)c1)C1CCCCN1C(=O)Cn1ccnc1 (centres unmarked) [Example 52, 1-(2-(1H-imidazol-1-yl)acetyl)-N-(2-chloro-2′-(trifluoromethoxy)-[1,1′-biphenyl]-4-yl)piperidine-2-carboxamide]	97.3%	99.3%
